Results from patent publication US7521454B2 (Dainippon Sumitomo Pharma Co., Ltd., priority 2001, dated 2009).
In brackets after ≈: the same amount, converted by molar mass. Like-named read-outs stand apart in the source and are kept apart here.

Key:
[1] = test system: human peripheral blood mononuclear cells (PBMC); experiment: Interferon-inducing activity in human peripheral blood mononuclear cells (PBMC), IFN-α ELISA; format: cell-based; conditions: 24 h;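 also: IFN-α in pg/ml with a 1.25 pg/ml detection limit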
Procedure: Peripheral bloods were sampled from 5 healthy volunteers using a syringe containing heparin, and peripheral blood mononuclear cells (PBMC) were prepared by density gradient centrifugation utilizing the Lymphoprep™ (NYCOMED PHARMA AS). PBMCs were washed twice in serum-free RPMI 1640 medium and adjusted at 1×10^6 cells/ml in RPMI 1640 medium comprising 10% fetal bovine serum. The product was cultured in the presence of a test compound dissolved in dimethyl sulfoxide (final concentration: 0.1%) in an incubator in the presence of 5% CO^2 at 37° C. for 24 hours. As a control, 0.1% dimethyl sulfoxide containing no test compound was used. The culture supernatant was aseptically collected by filtration. Thereafter, the supernatant was cryopreserved at −20° C. or lower until it was subjected to the assay for IFN-inducing activity. Human IFN-α in the culture supernatant was quantified using a highly sensitive ELISA system (Amersham).

IL-5 production = experiment: Inhibitory activity against Th2 cytokine produced from sensitized spleen cells: IL-5; format: cell-based, mouse; conditions: Mus musculus, 72 h, OVA-sensitized BALB/c spleen cells, 3 days, read-out: Inhibitory activity against IL-5 production
Procedure: (§1) A 7-week-old BALB/c mouse was immunized intraperitoneally with aluminum hydroxide gel (4 mg, 100 μl) having 10 μg of ovalbumin adsorbed thereon, and it was subjected to additional immunization with the same agent 14 days later. Seven days thereafter, spleen was taken out, and suspended in RPMI-1640 comprising inactivated fetal bovine serum (10%), 2-mercaptoethanol ([…]), penicillin G (100 U/ml), and streptomycin (100 μg/ml). Thus, a splenic cell suspension was prepared. Ovalbumin (0.5 mg/ml) and a test compound were added to a splenic cell suspension (5×10^6 cell/200 μl/well), and the resultant was cultured at 37° C. in the presence of 5% CO2 for 3 days. The cytokine level in the culture supernatant was quantified by ELISA. IFN-γ and IL-4 were assayed using a kit available from Amersham, and IL-5 was assayed using a kit available from Endogen.

[2] = Solubility in citric acid/disodium phosphate buffers; conditions: citric acid/disodium phosphate buffer, thermodynamic from solid
Procedure: 5.53% citric acid (monohydrate) and 1.75% disodium phosphate (anhydrous) were mixed together to prepare buffers (pH 2.5, 5.5, 7.4). A compound was added thereto, the mixture was stirred in a vortex mixer and subjected to ultrasonication for 30 minutes. Thereafter, the resultant was stirred in a vortex mixer again and then centrifuged at 15,000 rpm for 20 minutes. The levels of the compounds in the supernatants were then quantified by HPLC.

mouse spleen cell = experiment: cells; format: cell-based; conditions: Mus musculus, 24 h, read-out: Interferon-inducing activity: Minimum effective concentration
Balb/c male mouse = experiment: Interferon-inducing activity in mouse (in vivo), serum interferon titer after oral dosing; conditions: po, 2 h
IL-4 production = experiment: Inhibitory activity against Th2 cytokine produced from sensitized spleen cells: IL-4; format: cell-based, mouse; conditions: Mus musculus, 72 h, OVA-sensitized BALB/c spleen cells, 3 days, read-out: Inhibitory activity against IL-4 production
Procedure: as §1

male cynomolgus monkeys [3] = conditions: po, 10 mg/kg, 4 h
[4] = Gastrointestinal absorption in rat (drug level in blood by HPLC); format: in vivo; conditions: blood, dose 3 mg/kg oral, SD male rat
Procedure: A test compound was suspended in an aqueous solution of 0.5% carboxymethylcellulose, and the resulting suspension was orally administered to an SD male rat. Blood was sampled with the elapse of time, and the level of the drug in blood was assayed by HPLC.

male cynomolgus monkeys [5] = experiment: Interferon-inducing activity in cynomolgus monkey (in vivo), serum interferon titer and vomition; conditions: 10 mg/kg oral
[6] = test system: rat model of eosinophil leukocytic infiltration; experiment: Rat model of eosinophil leukocytic infiltration (OVA, bronchoalveolar lavage); format: in vivo; conditions: 0.01 mg/kg intratracheal, 2.5 hours before induction, lavage 24 hours after
Procedure: A rat was immunized intraperitoneally with 1 ml of a solution containing 1 mg of ovalbumin (OVA) and 100 mg of Al(OH)3 on day 0 and day 7. On day 14, a 1% OVA solution was sprayed for 15 minutes using a ultrasonic nebulizer to induce reactions. A test compound was administered intratracheally 2.5 hours before the induction. Bronchoalveolar lavage was performed 24 hours after the induction, and eosinocytes in the wash was stained with Hinkelman to count the number of stained cells. Sensi.−/Challe.+, CMC-Na, and Fluticasone were used as controls. FIG. 1 and the following table show the results.

With CCCCNc1nc(N)c2nc(O)n(Cc3ccc(OC)nc3)c2n1 [Example 19, 2-Butylamino-8-hydroxy-9-(6-methoxy-3-pyridylmethyl)adenine] the “Interferon-inducing activity (human IFN-α in culture supernatant)” value ([1]; concentration 1 nM) was 5 ± 1 pg/mL, the “Interferon-inducing activity (human IFN-α in culture supernatant)” value ([1]; concentration 3 nM) was 12 ± 11 pg/mL and the “Interferon-inducing activity (human IFN-α in culture supernatant)” value ([1]; concentration 10 nM) was 48 ± 34 pg/mL. For the same compound, the “Interferon-inducing activity (human IFN-α in culture supernatant)” value ([1]; concentration 30 nM) was 60 ± 33 pg/mL, the activity at 0.001 µM (IL-5 production; concentration 1 nM) was 83% and the activity at 0.01 µM (IL-5 production; concentration 10 nM) was 16%. For the same compound, the activity at 0.1 µM (IL-5 production; concentration 100 nM) was 13%, the solubility at 30 min ([2]; pH 2.5, aqueous buffer) was 130 µg/mL (≈ 379 µM) and the solubility at 30 min ([2]; pH 5.5, aqueous buffer) was 2 µg/mL (≈ 5.82 µM). The solubility at 30 min ([2]; pH 7.4, aqueous buffer) was 2 µg/mL (≈ 5.82 µM), the minimal effective concentration (mouse spleen cell) was 0.003 µM and the Interferon-inducing activity (Balb/c male mouse; 0.01 mg/kg) was 14 ± 5 U/ml. The Interferon-inducing activity (Balb/c male mouse; 0.03 mg/kg) was 199 ± 84 U/ml, the Interferon-inducing activity (Balb/c male mouse; 0.1 mg/kg) was 383 ± 122 U/ml and the Interferon-inducing activity (Balb/c male mouse; 0.3 mg/kg) was 601 ± 187 U/ml. The activity at 0.001 µM (IL-4 production; concentration 1 nM) was 32%, the activity at 0.01 µM (IL-4 production; concentration 10 nM) was < 1% and the activity at 0.1 µM (IL-4 production; concentration 100 nM) was < 1%. The “interferon titer in blood serum (average±SE)” value (male cynomolgus monkeys [3]) was 12,173±6619 U/ml, the Cmax ([4]; read-out: Cmax) was 188 ng/mL and the Tmax ([4]; read-out: Tmax) was 4 h.

With CCCCOc1nc(N)c2nc(Br)n(Cc3ccc(Cl)nc3)c2n1 [Reference Example 2, 8-Bromo-2-butoxy-9-(6-chloro-3-pyridylmethyl)adenine] the vomition observed (male cynomolgus monkeys [5]; cynomolgus monkeys) was 4 out of 5 samples and the “interferon titer in blood serum (average±SE)” value (male cynomolgus monkeys [5]; four hours after the administration, five male cynomolgus monkeys) was 18,305±5578 U/ml.

In the case of C[C@@H]1C[C@H]2[C@@H]3C[C@H](F)C4=CC(=O)C=C[C@]4(C)[C@@]3(F)[C@@H](O)C[C@]2(C)[C@@]1(O)C(=O)SCF [Fluticasone, reference compound], the “eosinocytes in bronchoalveolar lavage, Average” value [6] is reported as 300.07 ×10^4 cells.
